Results reported in publication PMC9026148, “Pre-Clinical Study Evaluating Novel Protein Phosphatase 2A Activators as Therapeutics for Neuroblastoma” (Cancers, 2022).

Key:
Type in all cases: cell-based, human
[1] = tested on: SK-N-AS cells; assay: alamarBlue viability, SK-N-AS; settings: 24 h
Procedure: (§1) CellTiter 96® Aqueous One Solution Cell Proliferation assay (Promega, Madison, WI, USA) was used to examine proliferation, and alamarBlue® assay (Thermo Fisher Scientific, Inc.) was used to evaluate viability. Cells, concentrations ranging from 5 × 10^3 to 1.5 × 10^4, depending on cell type due to wide variation in growth characteristics between established cell lines and PDX cells, were plated in 96-well plates and treated with increasing doses of 792 or 1154 for 24 h. CellTiter 96® or alamarBlue® dye (10 µL) was added for proliferation and viability assays, respectively. A microplate reader (Epoch Microplate Spectrophotometer, BioTek Instruments, Winooski, VT) measured absorbance at 490 nm for CellTiter 96® and at 570 nm for alamarBlue®, using 600 nm as a reference. […] Experiments were completed with at least three biologic replicates, and data reported as fold change ± SEM.
Supplemental Figure S3: Novel PP2A activating compounds decrease d neuroblastoma proliferation and viability. SK-N-AS and SK-N-BE(2) cells (1.5 x 104) were plated in 96-well plates and treated with increasing doses of nine PP2A activating compounds for 24 […]
novel PP2A activators tested in (A) SK-N-AS and (B) SK-N-BE(2) cells. Similarly, PP2A […]
(D) SK-N-BE(2) cells. Data reported as mean fold change ± SEM, and experiments were repeated with at least three biologic replicates. […]

[2] = tested on: CIP2A; assay: Immunoblotting of CIP2A in neuroblastoma cells; settings: increasing concentrations, 24 h; all cell lines except WAC2 and COA129 treated with 792
Procedure: (§2) Following treatment, cells were lysed on ice using radioimmunoprecipitation (RIPA) buffer with phosphatase inhibitors (P5726, Sigma Aldrich), protease inhibitors (P8340, Sigma Aldrich), and phenylmethanesulfonylfluoride (PMSF, P7626, Sigma Aldrich) for 60 min. Cell lysates were centrifuged at 17,000 rpm for 30 min at 4 °C. Pierce™ BCA Protein Assay (Thermo Fisher Scientific, Inc.) determined protein concentration and proteins were separated by electrophoresis on sodium dodecyl sulfate polyacrylamide (SDS-PAGE) gels. Expected size of the targeted proteins was confirmed using molecular weight markers (Precision Plus Protein Kaleidoscope, Bio-Rad, Hercules, CA, USA). […] Immunoblots were developed with Luminata Classico or Crescendo Western horseradish peroxidase substrate (EMD Millipore, Burlington, MA, USA). Either anti-vinculin or anti-β-actin (as available from manufacturer) served as an internal loading control. We performed densitometry of Western blots using ImageJ software (Ver 1.49, http://imagej.nih.gov/ij (accessed on 9 February 2022).

[3] = tested on: SET; assay: Immunoblotting of SET in neuroblastoma cells; settings: increasing concentrations, 24 h; four cell lines and two PDXs
Procedure: as §2

[4] = tested on: SK-N-AS, SK-N-BE(2), SH-EP, WAC2, COA6, COA129 cells; assay: CellTiter 96 proliferation, long-term cell lines and PDX cells; settings: increasing doses, 24 h
Procedure: as §1

[5] = tested on: SK-N-AS, SK-N-BE(2), SH-EP, WAC2, COA6, COA129 cells; assay: alamarBlue viability, long-term cell lines and PDX cells; settings: increasing doses, 24 h; all cell lines
Procedure: as §1
Supplemental Figure S5: Treatment of neuroblastoma cell lines with 792 or 1154 resulted in decreased viability. Neuroblastoma cells ( 1.5 x 104 for AS, BE, SH-EP, WAC, COA6; 3 x 105 for COA129) were plated in 96-well plates and treated with increasing doses of 792 or […]
viability following increasing doses of either 792 (A) or 1154 (B). Similarly, increasing […]
PDXs. Data reported as mean fold change ± SEM, and experiments were repeated with at least three biologic replicates. […]

[6] = tested on: SK-N-AS, SK-N-BE(2), SH-EP, WAC2 cells; assay: Monolayer wound healing (scratch) migration assay; settings: 36 h; 792 10 μM SK-N-AS, 15 μM others; 1154 10 μM SK-N-AS and SK-N-BE(2), 15 μM SH-EP and WAC2
Procedure: Since the established neuroblastoma cell lines grow as adherent cells, migration in SK-N-AS, SK-N-BE(2), SH-EP, and WAC2 cells was examined using monolayer wound healing (scratch) assay. […] Once cells reached 80% confluence, a sterile 200 μL pipette tip was used to make a standard scratch in the cell layer. Photographs of the plates were obtained at 0, 12, 24, and 36 h. ImageJ MRI Wound Healing Tool (http://imagej.nih.gov/ij/ (accessed on 14 October 2019) quantified the open wound area, and data reported as fold change of the open area ± SEM. Invasion was evaluated with a modified Boyden chamber technique. The insert bottoms were coated with collagen type I (10 µg/mL, MP Biomedicals, Santa Ana, CA, USA). The insert tops were coated with a layer of Matrigel^TM (1 mg/mL, 50 μL, BD Biosciences). Cells were treated for 24 h with 792 (SK-N-AS 10 μM; SK-N-BE(2), SH-EP, WAC2 15 μM) or 1154 (SK-N-AS, SK-N-BE(2) 10 μM; SH-EP, WAC2 15 μM), plated (4 × 10^4 cells), and allowed to invade through the membrane for 24 h. Insert membranes were fixed using 4% paraformaldehyde, stained with 1% crystal violet for 15 min, photographed, and invasion quantified with ImageJ (http://imagej.nih.gov/ij/ (accessed on 10 September 2019)). Invasion data were reported as mean percent membrane occupied by cells ± SEM. Experiments were completed with at least three biologic replicates.

SMILES	LD50 [1]	expression of CIP2A [2]	SET expression [3]	proliferation [4]	viability [5]	Migration (fold change of open wound area) [6]
O=S(=O)(N[C@H]1COC[C@@H](n2c3ccc(Cl)cc3c3cc(Cl)ccc32)[C@@H]1O)c1ccc(OC(F)(F)F)cc1 [ATUX-792]	12.2 µM	decreased	unchanged	significantly decreased proliferation	significantly decreased viability	significantly decreased
O=S(=O)(NC1CCCC(N2c3ccccc3CCc3ccccc32)C1O)c1ccc(OC(F)(F)F)cc1 (stereo not drawn) [DBK-1154]	13.9 µM	decreased	unchanged	significantly decreased proliferation	significantly decreased viability	significantly decreased
